Here are results for two compounds from US9937198B2, “Multi-functional composition and preparation method and application thereof” (Suzhou Sciscape Bio-Pharmaceutical Technology Co., Ltd., priority 2013, dated 2018).

Assay [1] relates to healthy volunteers. The assay is described as follows: Effect on blood glucose level in normal people. In kind it is in vivo, human. The note with it: for effect on blood glucose level in normal people / Blood glucose level after administration: 200 mL oral; for Blood glucose level after administration / Blood glucose level before administration: individual healthy volunteers; for Blood glucose level before administration: fasting baseline. The method, then:
Six healthy volunteers were fasted overnight and then were measured for fasting blood glucose. Thereafter, they were orally administered with 200 mL of the solution of Composition 1, or 200 mL of the solution of trehalose (0.15 g/mL), or 200 mL of the solution of validamycin (0.3 mg/mL), or 200 mL of distilled water, as stated in Table 3.2. The blood glucose level in every volunteer was tested before administration and 30 min, 60 min and 120 min post administration.

Assay [2] deals with human skin. Description: Determination of moisture content in human skin. The assay is classed as in vivo. The text has this:
1. Subjects and Materials
One hundred and ten people were selected from the volunteers who participating in this test. They were females at the age of 30 to 55 with skin moisture content below 12%.
Solutions of Composition 1 to 7 prepared in this example were used except that the sterile water for medical use was replaced with warm water.
By skin moisture content, the subjects were randomly divided into 11 groups, i.e., a blank control group, administration groups 1 to 7 and negative control groups 1 to 3. The subjects in administration groups 1 to 7 respectively took 200 mL of the solution of Compositions 1 to 7 twice a day at 9 am and 9 pm while the subjects in the blank control group took 200 mL of warm water at the same time. In addition, the subjects in negative control groups 1 to 3 respectively took 200 mL of the solution of trehalose (0.15 g/mL), 200 mL of the solution of validamycin (0.3 mg/mL) and 200 mL of the solution of algal polysaccharides (0.15 g/mL). The administration lasted for 30 days. Skin moisture content was determined before administration and after administration. The determination was conducted in a spacious and well ventilated examination room. When the subjects were calm, the location to be determined was cleaned with sterile cotton ball soaked with distilled water. Fifteen minutes after the location was wiped dry, the skin moisture content was determined by skin moisture tester under the trademark of “KAKUSAN”.

Assay [3] deals with ovariectomized rats. The assay is described as follows: Osteoporosis amelioration in ovariectomized rats. In kind it is in vivo. The following applies: femur, 13.3 mL/kg once a day for 30 days. An excerpt: Female SD rats, 250 g to 280 g in body weight, were purchased from Shanghai Sippr-BK Lab Animal Co., Ltd.
(§1) The solutions of Compositions 1 to 7 prepared in this example were used.
After receiving ovariectomy, rats were fed normally for one week. By body weight, the rats were randomly divided into 11 groups, i.e., a blank control group, administration groups 1 to 7 and negative control groups 1 to 3. The rats in administration groups 1 to 7 were intragastrically administered with the solutions of Compositions 1 to 7 respectively at a dose of 13.3 mL/kg body weight while the rats in the blank control group were intragastrically given sterile water for medical use at a dose of 13.3 mL/kg body weight. The rats in negative control groups 1 to 3 were intragastrically given the solution of trehalose (0.15 g/mL), the solution of validamycin (0.3 mg/mL) and the solution of algal polysaccharides (0.15 g/mL) at a dose of 13.3 mL/kg body weight respectively. Administration was conducted once a day and lasted for 30 days. Normal rats were arranged in a normal group and fed normally all the time. Twenty to 30 min post last administration, all rats were killed by cervical vertebrae dislocation, and their femurs were taken out. Then, the bone density and mineral content in the femur were determined.

Assay [4] has as its system normal mice. Description: Sleep in normal mice with subdissociative sodium pentobarbital. The note with it: 13.3 mL/kg intragastric; sodium pentobarbital 15 mg/kg i.p. 20 to 30 min later. The assay is classed as in vivo. The method, then: Male ICR mice, 8 weeks old and 20±2 g in body weight, were purchased from Beijing HFK Bioscience Co., Ltd.
as §1
After the mice were fed normally for 3 days, they were given no food but water for 18 to 24 h. By body weight, the mice were randomly divided into 11 groups, i.e., a blank control group, administration groups 1 to 7 and negative control groups 1 to 3. The mice in administration groups 1 to 7 were intragastrically administered with the solutions of Compositions 1 to 7 at a dose of 13.3 mL/kg body weight while the mice in the blank control group were intragastrically given sterile water for medical use at a dose of 13.3 mL/kg body weight. The mice in negative control groups 1 to 3 were intragastrically given the solution of trehalose (0.15 g/mL), the solution of validamycin (0.3 mg/mL) and the solution of algal polysaccharides (0.15 g/mL) at a dose of 13.3 mL/kg body weight respectively. Twenty to 30 min post administration, all mice were intraperitoneally injected with sodium pentobarbital at a subdissociative dose (15 mg/kg). The time when the righting reflex disappeared and sleep duration of the mice were recorded.

Assay [5] deals with patients with type-II diabetes. Description: Short-term experiment for treatment in human diabetics. The assay is classed as in vivo. The following applies: for effect on blood glucose level in patients with type-II diabetes, short-term / Blood glucose level after administration: 200 mL oral; for Blood glucose level after administration / Blood glucose level before administration: individual type-II diabetes patients; for Blood glucose level before administration: fasting baseline. The method, then:
Six patients with type-II diabetes were fasted overnight and then measured for fasting blood glucose level. Then they were orally administered with 200 mL of the solution of Composition 1, or 200 mL of solution of trehalose (0.15 g/mL), or 200 mL of the solution of validamycin (0.3 mg/mL), or 200 mL of distilled water, as stated in Table 3.3. The blood glucose level in every patient was tested before administration and 30 min, 60 min and 120 min post administration.

[6] abbreviates: after administration, 200 mL twice a day for 30 days.
Where [7] appears, read: 30 min, listed as Solution of validamycin.
The mark [8] stands for this setting: 60 min, listed as Solution of validamycin.
[9] abbreviates: 120 min, listed as Solution of validamycin.
Setting [10] is: listed as Solution of validamycin.

SMILES strings stand for the structures. Several values for one entry are separate records, joined by “and”; a condition that tells them apart may be missing. Identical values can stand only once.

In the case of `OC[C@H]1O[C@H](O[C@H]2O[C@H](CO)[C@@H](O)[C@H](O)[C@H]2O)[C@H](O)[C@@H](O)[C@@H]1O` [trehalose], the “effect on blood glucose level in normal people” value in assay [1] is “significantly raised blood glucose level”. Besides, the “Blood glucose level after administration” value in assay [1] (30 min) turned out to be 9.3 mmol/L; in assay [1] (60 min), 8.4 mmol/L; in assay [1] (120 min), 7.1 mmol/L; in assay [5] (30 min) it was 25.5 mmol/L; in assay [5] (60 min), 20.1 mmol/L; in assay [5] (120 min), 17.3 mmol/L. Also, the “Blood glucose level before administration” value in assay [1] was 7.0 mmol/L; in assay [5], 15.3 mmol/L. In addition, the Skin moisture content in assay [2] (setting [6]) is 8.52 ± 0.55%; in assay [2] (before administration), 8.55 ± 0.68%. Besides, the Bone density in assay [3] is 0.1037 ± 0.0211 g/cm^2. In addition, the Mineral content in assay [3] is given as 0.1245 ± 0.0374 g/cm. In assay [4], this compound showed a Sleep duration of 30.54 ± 2.17 min. Also, the “Time when righting reflex disappeared” value in assay [4] is 2.49 ± 0.14 min. Also, in assay [5], the “effect on blood glucose level in patients with type-II diabetes, short-term” value is given as “significantly raised the blood glucose level”.

For `OCC1=C[C@H](N[C@H]2C[C@H](CO)[C@@H](O[C@@H]3O[C@H](CO)[C@@H](O)[C@H](O)[C@H]3O)[C@H](O)[C@H]2O)[C@H](O)[C@@H](O)[C@@H]1O` [validamycin], in assay [1], the “effect on blood glucose level in normal people” value is “had not effect on the blood glucose level”. Besides, the “Blood glucose level after administration” value in assay [1] (setting [7]) was 6.3 mmol/L and 6.7 mmol/L; in assay [1] (setting [8]), 6.2 mmol/L and 6.6 mmol/L; in assay [1] (setting [9]), 5.9 mmol/L and 5.3 mmol/L; in assay [5] (setting [7]), 9.5 mmol/L and 15.7 mmol/L; in assay [5] (setting [8]) it was 9.6 mmol/L and 16.1 mmol/L; in assay [5] (setting [9]), 9.1 mmol/L and 14.8 mmol/L. In addition, the “Blood glucose level before administration” value in assay [1] (setting [10]) is 6.0 mmol/L and 5.3 mmol/L; in assay [5] (setting [10]), 9.3 mmol/L and 15.5 mmol/L. For the same compound, the Skin moisture content in assay [2] (setting [6]) is 8.35 ± 0.47%; in assay [2] (before administration), 8.21 ± 0.98%. This compound also yielded a Bone density in assay [3] of 0.1063 ± 0.0222 g/cm^2. In assay [3], this compound showed a Mineral content of 0.1212 ± 0.0311 g/cm. In assay [4], this compound returned a Sleep duration of 29.87 ± 1.58 min. Besides, in assay [4], the “Time when righting reflex disappeared” value is given as 3.11 ± 0.21 min. For the same compound, in assay [5], the “effect on blood glucose level in patients with type-II diabetes, short-term” value is “had no influence on blood glucose level”.
